# Laboratory results reported in PubChem BioAssay (NCI).
# “And” between values parts separate entries of the source, which are not always exact repeats. Identical values can stand only once.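 Five compound concentrations were applied to cells in 96-well plates for 48 hours; endpoints were derived by simple linear interpolation of the resulting dose-response curve. GI50 marks 50% less growth. TGI marks complete inhibition of growth.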
# What was measured:
# Assay in all cases: DTP human tumour cell line panel, 48 h
# HCT-15 colon = tested on: HCT-15 colon
# SK-MEL-2 melanoma = tested on: SK-MEL-2 melanoma
# OVCAR-3 ovarian = tested on: OVCAR-3 ovarian
# NCI-H23 lung = tested on: NCI-H23 lung
# MOLT-4 leukemia = tested on: MOLT-4 leukemia
# ACHN renal = tested on: ACHN renal
# KM12 colon = tested on: KM12 colon
# RPMI-8226 leukemia = tested on: RPMI-8226 leukemia
# NCI/ADR-RES ovarian = tested on: NCI/ADR-RES ovarian
# SN12C renal = tested on: SN12C renal
SMILES,GI50 (HCT-15 colon) [µM],TGI (HCT-15 colon),GI50 (SK-MEL-2 melanoma) [µM],TGI (SK-MEL-2 melanoma),GI50 (OVCAR-3 ovarian) [µM],TGI (OVCAR-3 ovarian),GI50 (NCI-H23 lung) [µM],TGI (NCI-H23 lung),GI50 (MOLT-4 leukemia) [µM],TGI (MOLT-4 leukemia) [µM],GI50 (ACHN renal),TGI (ACHN renal),GI50 (KM12 colon) [µM],TGI (KM12 colon),GI50 (RPMI-8226 leukemia) [µM],TGI (RPMI-8226 leukemia),GI50 (NCI/ADR-RES ovarian) [µM],TGI (NCI/ADR-RES ovarian),GI50 (SN12C renal) [µM],TGI (SN12C renal)
CC(=O)O[C@]1(C(C)=O)CC[C@H]2[C@@H]3C=C(C)C4=CC(=O)CC[C@]4(C)[C@H]3CC[C@@]21C,> 100,> 100 µM,> 100,> 100 µM,> 100,> 100 µM,> 100,> 100 µM,43.2,> 100,> 74.1 µM,> 100 µM,> 100,> 100 µM,2.78,> 100 µM,46.9,> 100 µM,> 100,> 100 µM
NC(=O)c1cc(-c2ccc(F)cc2)cc(-c2ccncc2)c1N,> 25,> 25 µM,> 25,> 25 µM,> 25,> 25 µM,> 25,> 25 µM,> 25,> 25,> 25 µM,> 25 µM,> 25,> 25 µM,> 25,> 25 µM,> 25,> 25 µM,> 25,> 25 µM
N#CSCC1CC(O)(c2ccccc2)CC(c2ccc(F)cc2)O1 (configuration not stated),1.76,4.89 µM,1.66,3.39 µM,1.45,2.76 µM,2.02,5.32 µM,0.674,3.51,2.1 µM,6.43 µM,1.63,3.07 µM,1.64,4.65 µM,1.92,4.77 µM,1.8,3.47 µM
Cn1ccnc1C(=O)/C=C/c1ccccc1,2.77,13.8 µM,3.63,17.1 µM,3.22,8.5 µM,3.76,25.4 µM,3.35,15.6,4.53 µM,20.3 µM,3.06,12.5 µM,2.91,8.97 µM,3.11,8.95 µM,3,17.3 µM
CCCCCCCCCCCC1CCCC(C)N1 (configuration not stated),2.85,13.3 µM and 104 µM,5.88,,12,28.7 µM and 121 µM,8.49,23.9 µM and 133 µM,1.79,,11.4 µM,25.5 µM,2.95,,1.66,,11.9,27.3 µM and 161 µM,6.3,23.9 µM and 131 µM
O=C(NCc1ccc(Cn2c(=O)sn(-c3ccccc3)c2=O)cc1)OCc1ccc2c(Br)cc(Br)c(O)c2n1,0.222,0.572 µM,1.34,2.82 µM,0.267,0.738 µM,1.4,3.06 µM,0.503,> 22.3,0.281 µM,0.927 µM,1.57,3.47 µM,0.312,1.72 µM,1.2,7.06 µM,0.703,2.06 µM
CCN(C(=O)c1cc(F)ccc1Oc1cncnc1N1CC2(CCN(CC3CCC(NS(=O)(=O)CC)CC3)CC2)C1)C(C)C (configuration not stated),> 100,> 100 µM,> 100,> 100 µM,> 100,> 100 µM,> 100,> 100 µM,> 100,> 100,> 100 µM,> 100 µM,> 100,> 100 µM,> 100,> 100 µM,> 100,> 100 µM,> 100,> 100 µM
Cc1occc1C(=S)Nc1ccc(Cl)c(C(=O)OC(C)C2CC2)c1 (configuration not stated),,41.2 µM,,38.4 µM,,35.3 µM,,40.1 µM,,57.5,,42 µM,,39.9 µM,,60.1 µM,,65.1 µM,,41.6 µM
c1cc(CNCCN2CCNCC2)ccn1,,> 100 µM,,> 100 µM,,> 100 µM,,> 100 µM,,> 100,,> 100 µM,,> 100 µM,,> 100 µM,,> 100 µM,,> 100 µM
COc1ccc(/C(C#N)=C/c2ccc(OC)c(OC)c2)cc1,,> 100 µM,,> 100 µM,,> 100 µM,,> 100 µM,,> 100,,> 100 µM,,> 100 µM,,> 100 µM,,> 100 µM,,> 100 µM
CCNC(=O)c1cc2c(-c3cc(C(C)(C)O)ccc3Oc3c(C)cc(F)cc3C)cn(C)c(=O)c2[nH]1,1.84,14.2 µM,2.92,15 µM,1.93,11.9 µM,1.89,10.7 µM,2.36,10.2,2.15 µM,12.1 µM,1.87,15.8 µM,0.605,8.98 µM,7.49,23.2 µM,3.03,16.8 µM
Nc1nc(-c2ccc(F)cc2)c(-c2ccc3ncccc3n2)s1,14.1,> 25 µM,> 25,> 25 µM,12.7,> 25 µM,15.6,> 25 µM,17.4,> 25,8.33 µM,> 25 µM,> 25,> 25 µM,> 19.8,> 25 µM,21.7,> 25 µM,10.1,> 25 µM
COc1ccc2c(c1)n([O-])c1ccccc1[n+]2=O,,> 100 µM and 37.3 µM,,74.7 µM and 54.5 µM,,> 100 µM and 58.7 µM,,> 100 µM and 91.4 µM,,> 100,16.3 µM and 5.24 µM,41.5 µM and 47.3 µM,,> 100 µM and 46.2 µM,,97.1 µM and > 100 µM,,> 100 µM and 97.9 µM,,> 100 µM
CC[C@@H](C(=O)[C@@H](C)[C@@H](O)[C@H](C)[C@@H]1O[C@@H]([C@@H](CC)C(=O)N(CC)CC)CC[C@@H]1C)C1O[C@]2(C=CC(=O)[C@]3(CC[C@@](C)([C@H]4CC[C@](O)(CC)[C@H](C)O4)O3)O2)[C@H](C)C[C@@H]1C (some centres not stated),2.02,4.51 µM,2.71,7.85 µM,2.34,6.49 µM,2.4,6.91 µM,2.66,8.06,2.16 µM,5.19 µM,1.82,3.68 µM,2.12,6.42 µM,2.82,26.9 µM,2.41,8.64 µM
CN1CCN(c2ccc3nc(-c4ccc5nc(-c6ccc(OCCC(C)(C)C)cc6)[nH]c5c4)[nH]c3c2)CC1,12.1,28.2 µM,19.7,38.5 µM,5.22,16.8 µM,15.1,33 µM,3.12,10.7,9.2 µM,22.8 µM,1.91,4.2 µM,2.86,7.44 µM,35.7,> 100 µM,4,15.4 µM
COC(=O)C1=C(C)NC(C)=C(C(=O)OC)C1/C=C(Cl)/C=C/c1ccccc1,29.7,> 100 µM,13.4,50.4 µM,15.3,31.9 µM,21.3,41.6 µM,18.4,41,24.6 µM,76 µM,18.4,39.5 µM,32.2,> 100 µM,18.4,44.3 µM,19.2,41.6 µM
O=C(NP(=O)(N1CC1)N1CC1)c1cc(I)ccc1I,,> 100 µM,,> 100 µM,,86.6 µM,,56.1 µM,,> 100,,> 65.1 µM,,> 100 µM,,> 100 µM,,> 66.1 µM,,> 100 µM
O=C(O)c1cccc(N=Nc2c(S(=O)(=O)O)ccc3c2C(=O)c2ccccc2C3=O)c1O,,> 100 µM,,> 100 µM,,> 100 µM,,> 100 µM,,> 100,,> 100 µM,,> 100 µM,,> 100 µM,,> 100 µM,,> 100 µM
O=C(/C=C/c1cc([N+](=O)[O-])ccc1Cl)c1ccccc1,8,88.2 µM,24.6,72.3 µM,5.08,16.1 µM,15.6,36.2 µM,21.1,> 100,16.4 µM,31.9 µM,1.8,3.59 µM,3.68,14.6 µM,24.4,91.7 µM,19.6,54 µM
